In US20110166066A1, “CATESTATIN (CST) AND ITS VARIANTS FOR TREATMENT OF CARDIOVASCULAR AND METABOLIC DISORDERS” (priority 2008, published 2011):
pEC50, pIC50: −log10 of the molar value. Read-outs that look alike come from different tables or passages of the source. No end group written: not given here.

Legend:
[1] = test system: Langendorff perfused rat heart; experiment: Langendorff perfused rat heart, basal conditions: concentration-response of catestatin peptides
Excerpt: Animals-Male Wistar rats (Morini, Bologna, Italy S.P.A.) weighing 180-250 g were housed (three per cage) in a ventilated cage rack system under standard conditions. Animals had food and water access ad libitum. The investigation conforms to the Guide for the Care and Use of Laboratory Animals, according to NIH Publication No. 85-23, revised 1996. Isolated heart preparation-Rats were anesthetized with ethyl carbamate (2 g/Kg rat, i.p.), the hearts rapidly excised and then transferred in ice-cold buffered Krebs-Henseleit solution (KHs). As previously described (23), the aorta was immediately cannulated with a glass cannula and connected to Langendorff apparatus to start perfusion at constant flow-rate (12 ml/min). Briefly, the apex of the left ventricle (LV) was pierced to avoid fluid accumulation. A water-filled latex balloon, connected to a pressure transducer ([…], Inc. USA), was inserted through mitral valve into the LV allowing isovolumic contractions and continuous mechanical parameters recording. Another pressure transducer located just above the aorta recorded coronary pressure (CP). […] Hemodynamic parameters were assessed using a PowerLab data acquisition system and analysed using Chart software (both purchased by ADInstruments, Basile, Italy). […] Curve fitting was accomplished in the program Kaleidagraph (Synergy Software, Reading, Pa.). Peptide EC50 and IC50 values were interpolated as the concentration that achieved 50% stimulation and inhibition, respectively. For analysis of phosphorylated proteins, levels were quantified using Bio-Rad QuantifyOne and volumes of phosphorylated proteins were divided by the levels of non-phosphorylated proteins to calculate fold activation. Stimulation of protein activity was expressed as fold increase over vehicle-treated control. The means and S.E.M. were calculated for each treatment. Multiple comparisons were made using either one-way ANOVA followed by Bonferroni's post-hoc test or two-way ANOVA. Statistical significance was concluded at p<0.05. Statistics were computed with the program InStat (GraphPad Software, Inc., San Diego, Calif.).

GSK-3β Ser9 = experiment: Immunoblot of phosphorylated GSK-3β in WT-CST perfused hearts; design: species or system rat; conditions: 110 nM
Protocol: Cardiac signaling—Hearts were perfused with or without 110 nM WT-Cts as before. At the end of experiment hearts were snap frozen under liquid nitrogen and homogenized with 1 ml of ice cold 0.2 M sucrose, Tris maleate (pH 7.0) buffer supplemented with 2 mM EDTA, pH 8.0, 1 mM sodium orthovanadate, 10 mM sodium pyrophosphate, 1 mM phenylmethylsulfonyl fluoride, 10 μg/ml leupeptin, 10 μg/ml aprotinin and 0.1 mM 3-isobutyl-1-methylxanthine. SR membrane fractions were isolated from cytosolic proteins as described before (27). Protein content was determined by Bradford assay (BIO-RAD) and 100 μg of cytosolic protein was subjected to SDS-PAGE immunoblot analysis for phosphorylated-ERK, total ERK (P-ERK and T-ERK; Santa Cruz, Calif.). […]
Statistics—Data are expressed as the mean±SEM. Curve fitting was accomplished in the program Kaleidagraph (Synergy Software, Reading, Pa.). […] For analysis of phosphorylated proteins, levels were quantified using Bio-Rad QuantifyOne and volumes of phosphorylated proteins were divided by the levels of non-phosphorylated proteins to calculate fold activation. Stimulation of protein activity was expressed as fold increase over vehicle-treated control. The means and S.E.M. were calculated for each treatment. […]

C57BL/6 wild-type mice = experiment: Mouse hind-limb ischemia model; format: in vivo; conditions: for Blood perfusion (LDPI), in words: 3 and 4 weeks after operation
Protocol: Mouse hind-limb ischemia model. Male C57BL/6 wild-type mice at the age of 12 months were subjected to unilateral hind-limb surgery. Briefly, the left femoral artery was exposed, ligated with 5-0 silk ligatures, and excised. Mice were injected with saline or 10 μg catestatin into thigh and calf muscles after operation and every other day for weeks 1 and 2 and 2 times per week for weeks 3 and 4. All further measurements and analyses were performed by investigators blinded to the treatment of the animals.
Blood flow measurement. Blood flow measurements were performed using a laser Doppler perfusion image (LDPI) analyzer (Moor Instruments, USA) as described. To minimize data variables attributable to ambient light and temperature animals were kept on a heating plate at 37° C. before measurement and blood perfusion is expressed as the LDPI index representing the ratio of left (=operated, ischemic leg) versus right (=not-operated, not-ischemic leg) limb blood flow. A ratio of 1 before operation indicates equal blood perfusion of both legs, whereas after femoral artery excision this ratio drops to 0.26, indicating severe attenuation of leg blood supply in the operated leg.
Alkaline phosphatase staining and Immunohistochemistry. For tissue staining, mice were sacrificed and ischemic limb tissues were retrieved after 4 weeks. Specimens were fixed in 10% (v/v) buffered formaldehyde, dehydrated with graded ethanol series and embedded in paraffin. Alternatively, fresh tissue was embedded in OCT compound (TISSUE-TEK®, Sakura Finetek) and snap-frozen in liquid nitrogen. Tissues were sliced into 5-μm sections. Vascular endothelial cells were identified by alkaline phosphatase staining and for assessment of artery/arteriole density sections were stained with a mouse monoclonal alpha-smooth muscle actin antibody (Pharmingen) as described (36). Adductor muscle samples of each leg were divided into 2 parts and capillaries (alkaline phosphatase positive) and arteries (alpha-smooth muscle actin positive) were counted in five sections of each part and are expressed as capillary and arteriole density per mm^2.

EPCs = experiment: Effects on EPCs in-vitro; format: cell-based
sympathochromaffin cells = conditions: in vitro, cited from earlier work

SSMKLSFRARAYGFRGPGPQL [WT-CST, catestatin]
pEC50 [1]: ~7.90 | Time the LVP effect remained stable [1]: 15 min | Time to maximum effect on LVP after administration [1]: 5 min | pIC50 ([1]; 11 to 200 nM, measured at 10 min, read-out: +(LVdP/dt)max inhibition IC50): ~7.14 | pEC50 ([1]; 11 to 200 nM, measured at 10 min, read-out: T/−t increment EC50): 7.22 | pIC50 ([1]; 11 to 200 nM, measured at 10 min, read-out: −(LVdP/dt)max decrement IC50): 7.13 | Concentration of maximum CP response ([1]; basal): 200 nM | Concentration of maximum HR increase ([1]; basal): 165 nM | Effect on CP (coronary pressure) ([1]; basal): dose-dependent increment | Activity rank order ([1]; basal conditions, Table 2): Activity: WT-CST > P370L-CST > G364S-CST | Inotropism ([1]; basal conditions, Table 2): Negative | Lusitropism ([1]; basal conditions, Table 2): Negative | Effect on HR ([1]; basal, WT-Cts significant at 33 nM): significantly increased | Desensitization on repetitive exposure ([1]; single concentration 33 nM, repeated): absence of desensitization | Phosphorylation of GSK-3β at Ser9 (GSK-3β Ser9): inhibited | Blood perfusion (LDPI), in words (C57BL/6 wild-type mice; listed as CST): improved perfusion | Blood perfusion (LDPI), in words (C57BL/6 wild-type mice; listed as catestatin): improved blood perfusion | Capillary density, in words (C57BL/6 wild-type mice; 4 weeks): significantly increased capillary density | Density of arteries/arterioles, in words (C57BL/6 wild-type mice; 4 weeks): increases density of arteries/arterioles | Alpha-smooth muscle actin positive vessels (C57BL/6 wild-type mice; 4 weeks after surgery): 7.5±0.5 vessels/mm^2 | Capillaries (alkaline phosphatase positive vessels) (C57BL/6 wild-type mice; 4 weeks after surgery): 356±17 capillaries/mm^2 | LDPI ratio (C57BL/6 wild-type mice; 4 wks after induction of ischemia, 10 μg i.m.): 0.94±0.03 | Perfusion ratios versus saline (C57BL/6 wild-type mice; after 3 weeks): significantly better | Effects on EPCs (chemotaxis, incorporation into vascular structures) (EPCs): showed effects on EPCs | Rank order of potency, inhibition of catecholamine secretion (sympathochromaffin cells; listed as wild-type (WT)): Pro370Leu>wild-type (WT)>Gly364Ser>Arg374Gln | Rank order of potency, inhibition of catecholamine secretion (sympathochromaffin cells; listed as wildtype (WT)): Pro370Leu>wildtype (WT)>Gly364Ser>Arg374Gln
